Results on twelve compounds are retold here after patent US10501460B2, “Heterocyclic compounds and uses thereof” (Plexxikon Inc., priority 2013, dated 2019).

Molecules are shown by their SMILES. Where only a bound is given, the exact number is not on record here.

One assay concerns the target T1, BRD4-BD1 (44-164) (Homo sapiens, UniProt O60885).
T1 construct: BRD4-BD1 (44-164); made in house; host or cells: E. coli BL21-CodonPlus (DE3)
Nature of the assay: Alphascreen binding assay BRD4-BD1 (BRD4 biochemical inhibitory activity). The conditions noted are these: read-out: Biochemical activity (IC50 μM) BRD4(1) H4. The method in brief:
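His-tagged human BRD4-BD1 (44-164), E. coli-expressed, incubated 1 h at room temperature with compound and biotinylated tetra-acetylated histone H4 (1-21) peptide in HEPES pH 7.5 buffer with NaCl, BSA, Triton X-100 and DTT. AlphaScreen nickel-chelate/streptavidin beads (7.5 μg/ml final) added, read after 30 min. pIC50 from four-parameter fit of control-normalized signal.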
On the technique in general: Alpha assays give light when donor and acceptor beads are brought close together.

Another assay has as its system MV-4-11. In words: Oncology cell growth assay MV-4-11 (CellTiter Glo, 72 hours). The conditions noted are these: Homo sapiens, MV4-11, 72 h; MV-4-11 cell growth inhibitory activity, 3d. The assay is classed as cell-based. The method in brief: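 MV-4-11 cells (MLL-AF4 AML) exposed 72 h to 8-point 1:3 titration, top final 10 μM, 0.2% DMSO. CellTiter Glo luminescence as cell-number readout, normalized to DMSO controls; pIC50 from four-parameter fit.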
(In general: Cellular ATP, detected with luciferase, serves as a proxy for viable cell number.)

The next assay has as its system bromodomain. In words: Bromodomain cell assays of Example 40 (at least one of them). The assay is classed as cell-based. The settings on record: in at least one of the bromodomain cell assays described in Example 40. The method in brief: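 Growth inhibition: 3000 MV-4-11, MOLM-13, MM.1S or neuroblastoma cells/well got an 8-point 1:3 series from 10 μM top (0.2% DMSO) for 72 h, then CellTiter-Glo luminescence. Myc reporter: MV-4-11 with E-box firefly luciferase, 24 h exposure, One-Glo luminescence plus CellTiter-Fluo cell count. pIC50 from four-parameter fit.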

As usually defined, the IC50 is the midpoint of a concentration-inhibition curve. As to `CCCCC(O)(c1cn(C)c2ncc(-c3c(C)noc3C)cc12)C1CCC(F)(F)CC1` (stereo not drawn) [P-0108, 1-(4,4-difluorocyclohexyl)-1-[5-(3,5-dimethylisoxazol-4-yl)-1-methyl-pyrrolo[2,3-b]pyridin-3-yl]pentan-1-ol], the half-inhibitory concentration (IC50) at BRD4-BD1 (44-164) was at most 1 µM; with MV-4-11, at most 1 µM; in the assay on bromodomain, under 10000 nM.
Regarding `CCCCC(c1cn(C)c2ncc(-c3c(C)noc3C)cc12)C1CCC(F)(F)CC1` (stereo not drawn) [P-0109, 4-[3-[1-(4,4-difluorocyclohexyl)pentyl]-1-methyl-pyrrolo[2,3-b]pyridin-5-yl]-3,5-dimethyl-isoxazole], the IC50 is at most 1 µM at BRD4-BD1 (44-164), 1 to 10 µM in the assay on MV-4-11 and under 10000 nM in the assay on bromodomain.
For `Cc1noc(C)c1-c1cnc2c(C#CCF)cn(S(=O)(=O)c3ccccc3)c2c1` [P-0157, 4-[1-(benzenesulfonyl)-3-(3-fluoroprop-1-ynyl)pyrrolo[3,2-b]pyridin-6-yl]-3,5-dimethyl-isoxazole], the IC50 at BRD4-BD1 (44-164) was at most 1 µM; with MV-4-11, at most 1 µM; in the assay with bromodomain, under 10000 nM.
Consider `Cc1cc(-c2cn(S(=O)(=O)c3ccccc3)c3cc(-c4c(C)noc4C)cnc23)[nH]n1` [P-0164, 4-[1-(benzenesulfonyl)-3-(3-methyl-1H-pyrazol-5-yl)pyrrolo[3,2-b]pyridin-6-yl]-3,5-dimethyl-isoxazole], for which the IC50 at BRD4-BD1 (44-164) is at most 1 µM; in the assay with MV-4-11, at most 1 µM; with bromodomain, under 10000 nM.
Regarding `Cc1noc(C)c1-c1cnc2c(CCC(=O)O)cn(S(=O)(=O)c3ccccc3)c2c1` [P-0174, 3-[1-(benzenesulfonyl)-6-(3,5-dimethylisoxazol-4-yl)pyrrolo[3,2-b]pyridin-3-yl]propanoic acid], the half-inhibitory concentration (IC50) on BRD4-BD1 (44-164) is 1 to 10 µM; in the assay with MV-4-11 it was 1 to 10 µM; with bromodomain, under 10000 nM.
As for `Cc1noc(C)c1-c1cnc2c(c1)c(S(=O)(=O)c1ccccc1)cn2C1COC1` [P-0179, 4-[3-(benzenesulfonyl)-1-(oxetan-3-yl)pyrrolo[2,3-b]pyridin-5-yl]-3,5-dimethyl-isoxazole], the figures for the IC50 at BRD4-BD1 (44-164), in the assay on MV-4-11 and with bromodomain were 1 to 10 µM, 1 to 10 µM and under 10000 nM, respectively.
With `Cc1noc(C)c1-c1cnc2c(c1)c(Sc1ccccc1)cn2C1CCOC1` (stereo not drawn) [P-0180, 3,5-dimethyl-4-(3-phenylsulfanyl-1-tetrahydrofuran-3-yl-pyrrolo[2,3-b]pyridin-5-yl)isoxazole], the IC50 on BRD4-BD1 (44-164) was 1 to 10 µM; in the assay with MV-4-11 it was 1 to 10 µM; in the assay with bromodomain, under 10000 nM.
`Cc1noc(C)c1-c1cnc2c(c1)c(S(=O)(=O)c1ccccc1)cn2C1CCOC1` (stereo not drawn) [P-0181, 4-[3-(benzenesulfonyl)-1-tetrahydrofuran-3-yl-pyrrolo[2,3-b]pyridin-5-yl]-3,5-dimethyl-isoxazole]: the IC50 was 1 to 10 µM on BRD4-BD1 (44-164), at most 1 µM in the assay on MV-4-11 and under 10000 nM in the assay on bromodomain.
On the same counts, the results for `Cc1noc(C)c1-c1cnc2c(c1)c(Sc1ccccc1)cn2C1CCOCC1` [P-0182, 3,5-dimethyl-4-(3-phenylsulfanyl-1-tetrahydropyran-4-yl-pyrrolo[2,3-b]pyridin-5-yl)isoxazole] are 1 to 10 µM, at most 1 µM and under 10000 nM.
In the same order, the values of `Cc1noc(C)c1-c1cnc2c(c1)c(S(=O)(=O)c1ccccc1)cn2C1CCOCC1` [P-0183, 4-[3-(benzenesulfonyl)-1-tetrahydropyran-4-yl-pyrrolo[2,3-b]pyridin-5-yl]-3,5-dimethyl-isoxazole] are 1 to 10 µM, at most 1 µM and under 10000 nM.
In the same order, the values of `Cc1nc(-c2cn(S(=O)(=O)c3ccccc3)c3cc(-c4c(C)noc4C)cnc23)cs1` [P-0191, 4-[1-(benzenesulfonyl)-3-(2-methylthiazol-4-yl)pyrrolo[3,2-b]pyridin-6-yl]-3,5-dimethyl-isoxazole] are 1 to 10 µM, at most 1 µM and under 10000 nM.
`[2H]C([2H])(C1CCC(F)(F)CC1)n1cc(-c2cnn(C3CC3)c2)c2ncc(-c3c(C)noc3C)cc21` [P-0220, 4-[3-(1-cyclopropylpyrazol-4-yl)-1-[dideuterio-(4,4-difluorocyclohexyl)methyl]pyrrolo[3,2-b]pyridin-6-yl]-3,5-dimethyl-isoxazole]: the results for the IC50 on BRD4-BD1 (44-164), in the assay on MV-4-11 and with bromodomain were at most 1 µM, at most 1 µM and under 10000 nM, respectively.
